Experimental data from patent US4340725A (priority 1979, dated 1982).
Converted amounts (≈) assume the structure as drawn.

Experiments:
Sarcoma 180 solid tumor = experiment: Effect on sarcoma 180 solid tumor; type: in vivo, ddY-strain mice; conditions: 7 days after implantation
Experimental: Six male ddY-strain mice having a weight of about 20 g are used for each group as test animals; and 5×10^6 cells of Sarcoma 180 ascites tumor are implanted subcutaneously in the animals. After 24 hours following implantation, 0.2 ml phosphate buffered saline (PBS) containing DC-38-V in various concentrations is administered intraperitoneally.
Then the suspension is diluted with PBS to obtain suspensions having various concentrations of test compound.
As a control, PBS solution containing Tween 80 is used. The test animals are not affected by the control solution. PBS comprises 0.8 g/dl NaCl, 0.02 g/dl KCl, […] Na2 HPO4, and 0.02 g/dl KH2 PO4 (pH 7.2).
(§1) For comparison, 0.2 ml PBS solution containing mitomycin C is administered to a group of animals intraperitoneally at the same time as the test compound.
Seven days after implantation, the average tumor volume (mm^3) and T/C (T: average tumor volume of the group treated with the test compound, C: that of control) are determined.

[1] = Stability (solid; acidic, neutral, alkaline liquid; sun light or shielding); type: physicochemical
Text: The stability of compound is illustrated in Table 1.

[2] = system: Klebsiella pneumoniae ATCC 10031; experiment: in vitro antibacterial spectra, agar dilution method (pH 7.0); type: cell-based; conditions: ATCC10031, read-out: Minimum Inhibitory Concentration (MIC)
Text: (§2) The in vitro antibacterial spectra of DC-38-V determined by the agar dilution method (pH 7.0) is illustrated in the following Table 7.

[3] = system: Salmonella typhosa ATCC 9992; experiment: as above; type: cell-based; conditions: Salmonella enterica, read-out: Minimum Inhibitory Concentration (MIC)
Text: as §2

Escherichia coli ATCC 26 = experiment: as above; type: cell-based; conditions: ATCC26, read-out: Minimum Inhibitory Concentration (MIC)
Text: as §2

[4] = system: Bacillus subtilis No. 10707; experiment: as above; type: cell-based; conditions: read-out: Minimum Inhibitory Concentration (MIC)
Text: as §2

[5] = system: Staphylococcus aureus ATCC 6538 P; experiment: as above; type: cell-based; conditions: ATCC6538, read-out: Minimum Inhibitory Concentration (MIC)
Text: as §2

[6] = system: Shigella sonnei ATCC 9290; experiment: as above; type: cell-based; conditions: ATCC9290, read-out: Minimum Inhibitory Concentration (MIC)
Text: as §2

acute toxicity = conditions: mouse, in vivo, ip; mice, intraperitoneally
Experimental: The acute toxicity (LD50) of DC-38-V is >1000 mg/kg when the test compound is administered intraperitoneally to mice.

[7] = system: Lymphocytic leukemia P-388 tumor; experiment: Effect on Lymphocytic leukemia P-388 tumor; type: in vivo, CDF1 mice
Experimental: Five male CDF1 mice having a weight of about 22 g are used for each group as test animals; and 1×10^6 cells of Lymphocytic leukemia P-388 tumor are implanted intraperitoneally in the test animals. Twenty-four hours following implantation, 0.2 ml PBS solution containing DC-38-V in various concentrations is administered intraperitoneally.
For comparison, 0.2 ml PBS solution containing mitomycin C is administered to a group of test animals intraperitoneally at the same time as the test compound.

MH 134 ascites tumor = experiment: Effect on MH 134 ascites tumor; type: in vivo, C3H-strain mice; conditions: for Long term survivors (LTS): ≥40 days
Experimental: (§3) Six male C3H-strain mice having a weight of about 20 g are used for each group as test animals; and 5×10^6 cells of MH 134 ascites tumor are implanted in the animals intraperitoneally. After 24 hours following implantation, 0.2 ml PBS suspension containing DC-38-V in various concentrations is administered intraperitoneally.
as §1

[8] = system: Ehrlich ascites carcinoma; experiment: Effect on Ehrlich ascites carcinoma; type: in vivo, ddY-strain mice; conditions: for LTS: ≥60 days
Experimental: as §3, with “Five” for “Six”, “ddY-strain” for “C3H-strain”, “Ehrlich” for “MH 134”, “carcinoma” for “tumor”, “following implantation or once a day for five days from 24 hours after” for “following”
For comparison, mitomycin C is used as test compound.

Solubility of DC-38-V = type: physicochemical
[9] = 25 × 5 mg/kg i.p., once a day for five days
[10] = 50 × 5 mg/kg i.p., once a day for five days
[11] = 100 × 5 mg/kg i.p., once a day for five days

C=Cc1cc(OC)c2c(c1)c(=O)oc1c2cc(OC)c2c(O)ccc(C3OC(C(C)O)C(O)C3O)c21 (stereo not shown) [DC-38-V]
T/C (average tumor volume) (Sarcoma 180 solid tumor; 100 mg/kg i.p.): 0.76
average tumor volume (V) (Sarcoma 180 solid tumor; 100 mg/kg i.p.): 1,085 mm^3
T/C (average tumor volume) (Sarcoma 180 solid tumor; 200 mg/kg i.p.): 0.62
average tumor volume (V) (Sarcoma 180 solid tumor; 200 mg/kg i.p.): 874 mm^3
T/C (average tumor volume) (Sarcoma 180 solid tumor; 400 mg/kg i.p.): 0.40
average tumor volume (V) (Sarcoma 180 solid tumor; 400 mg/kg i.p.): 562 mm^3
Stability ([1]; Liquid acidic, shielding): stable
Stability ([1]; Liquid alkaline, shielding): unstable
Stability ([1]; Liquid alkaline, sun light): unstable
Stability ([1]; Liquid neutral, shielding): stable
Stability ([1]; Solid, shielding): stable
Stability ([1]; Solid, sun light): unstable
MIC [2]: > 75 µg/mL
MIC [3]: > 75 µg/mL
MIC (Escherichia coli ATCC 26): 18.8 µg/mL (≈ 37.9 µM)
MIC [4]: 0.0375 µg/mL (≈ 0.0758 µM)
MIC [5]: 0.0375 µg/mL (≈ 0.0758 µM)
MIC [6]: > 75 µg/mL
LD50 (acute toxicity): > 1000 mg/kg
increased life span (ILS) ([7]; 50 mg/kg i.p.): 138%
mean survival time (MST) ([7]; 50 mg/kg i.p.): 13.4 days
increased life span (ILS) ([7]; 100 mg/kg i.p.): 141%
mean survival time (MST) ([7]; 100 mg/kg i.p.): 14.5 days
increased life span (ILS) ([7]; 200 mg/kg i.p.): 155%
mean survival time (MST) ([7]; 200 mg/kg i.p.): 16.0 days
increased life span (ILS) ([7]; 400 mg/kg i.p.): 162%
mean survival time (MST) ([7]; 400 mg/kg i.p.): 16.7 days
ILS (MH 134 ascites tumor; 100 mg/kg i.p.): > 184%
MST (MH 134 ascites tumor; 100 mg/kg i.p.): > 31.5 days
Long term survivors (LTS) (MH 134 ascites tumor; 100 mg/kg i.p.): 3/6
ILS (MH 134 ascites tumor; 200 mg/kg i.p.): > 310%
MST (MH 134 ascites tumor; 200 mg/kg i.p.): > 53.0 days
Long term survivors (LTS) (MH 134 ascites tumor; 200 mg/kg i.p.): 6/6
ILS (MH 134 ascites tumor; 400 mg/kg i.p.): > 231%
MST (MH 134 ascites tumor; 400 mg/kg i.p.): > 39.5 days
Long term survivors (LTS) (MH 134 ascites tumor; 400 mg/kg i.p.): 2/6
ILS [8, 9]: > 315%
MST [8, 9]: > 49.8 days
LTS [8, 9]: 3/5
ILS ([8]; 50 × 1 mg/kg i.p.): 114%
MST ([8]; 50 × 1 mg/kg i.p.): 17.4 days
LTS ([8]; 50 × 1 mg/kg i.p.): 0/5
ILS [8, 10]: > 358%
MST [8, 10]: > 56.6 days
LTS [8, 10]: 4/5
ILS ([8]; 100 × 1 mg/kg i.p.): > 202%
MST ([8]; 100 × 1 mg/kg i.p.): > 30.6 days
LTS ([8]; 100 × 1 mg/kg i.p.): 1/5
ILS [8, 11]: > 380%
MST [8, 11]: > 60 days
LTS [8, 11]: 5/5
ILS ([8]; 200 × 1 mg/kg i.p.): > 264%
MST ([8]; 200 × 1 mg/kg i.p.): > 40.2 days
LTS ([8]; 200 × 1 mg/kg i.p.): 2/5
ILS ([8]; 400 × 1 mg/kg i.p.): > 275%
MST ([8]; 400 × 1 mg/kg i.p.): > 41.8 days
LTS ([8]; 400 × 1 mg/kg i.p.): 2/5
Solubility (Solubility of DC-38-V; acetone): slightly soluble
Solubility (Solubility of DC-38-V; benzene): slightly soluble
Solubility (Solubility of DC-38-V; chloroform): slightly soluble
Solubility (Solubility of DC-38-V; dimethylformamide): soluble
Solubility (Solubility of DC-38-V; dimethylsulfoxide): soluble
Solubility (Solubility of DC-38-V; ether): almost insoluble
Solubility (Solubility of DC-38-V; ethyl acetate): slightly soluble
Solubility (Solubility of DC-38-V; methanol): slightly soluble
Solubility (Solubility of DC-38-V; petroleum ether): almost insoluble
Solubility (Solubility of DC-38-V; pyridine): soluble
Solubility (Solubility of DC-38-V; tetrahydrofuran): soluble
Solubility (Solubility of DC-38-V; water): almost insoluble

CO[C@@]12[C@H](COC(N)=O)C3=C(C(=O)C(C)=C(N)C3=O)N1C[C@@H]1N[C@@H]12 [Mitomycin C, mitomycin C, reference compound]
T/C (average tumor volume) (Sarcoma 180 solid tumor; 4.2 mg/kg i.p.): 0.37
average tumor volume (V) (Sarcoma 180 solid tumor; 4.2 mg/kg i.p.): 529 mm^3
increased life span (ILS) ([7]; 4.2 mg/kg i.p.): 160%
mean survival time (MST) ([7]; 4.2 mg/kg i.p.): 16.5 days
ILS (MH 134 ascites tumor; 1.05 mg/kg i.p.): 106%
MST (MH 134 ascites tumor; 1.05 mg/kg i.p.): 18.1 days
Long term survivors (LTS) (MH 134 ascites tumor; 1.05 mg/kg i.p.): 0/6
ILS (MH 134 ascites tumor; 2.1 mg/kg i.p.): 116%
MST (MH 134 ascites tumor; 2.1 mg/kg i.p.): 19.8 days
Long term survivors (LTS) (MH 134 ascites tumor; 2.1 mg/kg i.p.): 0/6
ILS (MH 134 ascites tumor; 4.2 mg/kg i.p.): 120%
MST (MH 134 ascites tumor; 4.2 mg/kg i.p.): 20.5 days
Long term survivors (LTS) (MH 134 ascites tumor; 4.2 mg/kg i.p.): 0/6
ILS (MH 134 ascites tumor; 8.4 mg/kg i.p.): 55%
MST (MH 134 ascites tumor; 8.4 mg/kg i.p.): 9.4 days
Long term survivors (LTS) (MH 134 ascites tumor; 8.4 mg/kg i.p.): 0/6
ILS ([8]; 2.1 × 1 mg/kg): 122%
MST ([8]; 2.1 × 1 mg/kg): 18.6 days
LTS ([8]; 2.1 × 1 mg/kg): 0/5
ILS ([8]; 4.2 × 1 mg/kg): > 203%
MST ([8]; 4.2 × 1 mg/kg): > 30.8 days
LTS ([8]; 4.2 × 1 mg/kg): 1/5
ILS ([8]; 5.6 × 1 mg/kg): 122%
MST ([8]; 5.6 × 1 mg/kg): 18.6 days
LTS ([8]; 5.6 × 1 mg/kg): 0/5
